Experimental data taken from patent US4882319A, “Phosphonic acid substituted aromatic steroids as inhibitors of steroid 5-α-reductase” (SmithKline Beckman Corporation, priority 1988, dated 1989).
Read-outs that look alike come from different tables or passages of the source.

What was measured:
5-α-Reductase = conditions: cited from earlier work; for Ki: literature value; for Ki / mode of inhibition (Reversible / Irreversible): Table I; for mode of inhibition (Reversible / Irreversible) / time dependence of 5-α-reductase inhibition: literature
[1] = molecular target: T1, human steroid 5-α-reductase (Homo sapiens, UniProt P31213); assay: biochemical
T1 construct: Prostatic particles were obtained by differential centrifugation; from tissue; host or cells: hyperplastic human prostate, washed 140,000×g particulate fraction
T1 sequence (P31213 1-254): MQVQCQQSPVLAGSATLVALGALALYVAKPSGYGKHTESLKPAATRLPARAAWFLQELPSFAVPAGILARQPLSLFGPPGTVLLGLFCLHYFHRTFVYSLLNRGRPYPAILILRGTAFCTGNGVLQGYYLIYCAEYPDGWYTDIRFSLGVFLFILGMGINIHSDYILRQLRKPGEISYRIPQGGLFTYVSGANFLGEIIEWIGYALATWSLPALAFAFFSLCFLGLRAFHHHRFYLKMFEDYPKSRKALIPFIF
Method: A compound of the invention, 17β-(N,N-diisopropylcarboxamide)-estr-1,3,5(10)-triene-3-phosphonic acid, was tested for potency in inhibiting human steroid 5-α-reductase using tissue from hyperplastic human prostates. In determining potency in inhibiting the human enzyme, the following procedure was employed:
Frozen human prostates were thawed and minced into small pieces (5 mm^3). The tissue was homogenized in 3 to 5 volumes of 20 mM potassium phosphate buffer, pH 6.5, containing 0.33M sucrose, 1 mM dithiothreitol, and 50 μM NADPH with a Brinkmann Polytron (Sybron Corporation, Westbury, N.Y.). The solution was subjected to sonication for 3 to 5 minutes with a Sonifier (Branson Sonic Power Co.) followed by hand homogenization in a glass-to-glass Dounce homogenizer (Kontes Glass Company, Vineland, N.J.). […]
A constant amount of [^14 C]-testosterone (52 to 55 mCi/mmol, New England Nuclear, Boston, Mass.) in ethanol and varying amounts of the potential inhibitor in ethanol were deposited in test tubes and concentrated to dryness in a SAVANT Speed Vac. […] The radiochemical content in the bands of the substrate and the products was determined with a BIOSCAN Imaging Scanner (Bioscan, Inc., Washington, D.C.). The percent of recovered radiolabel converted to product was calculated, from which enzyme activity was determined. […]

[2] = test system: human steroid 5-α-reductase; conditions: read-out: Michaelis-Menton constant (Km) of the substrate (testosterone); determined in a separate experiment

| Compound | Ki (5-α-Reductase) [nM] | mode of inhibition (Reversible / Irreversible) (5-α-Reductase) | also measured |
| --- | --- | --- | --- |
| CC12CCC(=O)C=C1CCC1C2CCC2(C)C1CC[C@@H]2C(=O)O (some centres unmarked) [(1)] | 1100 | Reversible |  |
| CC(=O)C1CCC2C3CC=C=CC(=O)CCC(=O)C3CCC12C (centres unmarked) [(2)] | 1000 | Irreversible |  |
| CC(CO)C1CCC2C3CC[C@H]4C(=[N+]=[N-])C(=O)CCC4(C)C3CCC12C (some centres unmarked) [(3)] |  | Irreversible | Ki (5-α-Reductase; unit inferred): 35 nM; time dependence of 5-α-reductase inhibition (5-α-Reductase): potent, time-dependent inhibitor |
| CCN(CC)C(=O)C1CCC2C3CC[C@H]4N(C)C(=O)CCC4(C)C3CCC12C (some centres unmarked) [(4)] | 5 | Reversible |  |
| C=C1CC2C(CCC3(C)C2CC[C@]3(OC(C)=O)C(C)=O)C2(C)CCC(=O)C=C12 (some centres unmarked) [(5)] | 1250 | Irreversible | time dependence of 5-α-reductase inhibition (5-α-Reductase): time-dependent inactivator |
| CC(C)N(C(=O)[C@H]1CCC2C3CCc4cc(P(=O)(O)O)ccc4C3CCC21C)C(C)C (stereo partly drawn) [Example 1, 17β-(N,N-Diisopropylcarboxamide)-estr-1,3,5(10)-triene-3-phosphonic Acid] |  |  | Ki [1]: 50 nM |
| C[C@]12CC[C@H]3[C@@H](CCC4=CC(=O)CC[C@@]43C)[C@@H]1CC[C@@H]2O [testosterone] |  |  | Km [2]: 4.5 µM |
